Data from patent publication US20060099283A1, “Leaf juice of plectranthus amboinicus for treating cancer and/or tumor” (priority 2004, published 2006).

Key:
HepG2 = HepG2 hepatocellular carcinoma cell count after treatment; type: cell-based; conditions: Homo sapiens, 72 h; HepG2, day 3, 50 nM paciltaxel; read-out: inhibiting rate (cell growth)
Method: HepG2 and Hep3B cells were cultured in minimum essential medium supplemented with 10% fetal calf serum, 2 mM L-glutamine, 50 IU/mL penicillin, and 50 μg/mL streptomycin.
Cultures were maintained at 37° C. in a humidified atmosphere containing 5% CO2.
(§1) Treatment: In all in vitro experiments, 3% of the leaf juice prepared according to Example 1 was added to the cells after subcultured directly.
Cell count: Total cell counts were made by adding 20 μL of the cell suspension to 20 μL of 0.4% trypan blue, and counted under a phase contrast microscope.
The hepatocellular carcinoma cell lines used in the example are HepG2 and Huh7, and the manipulations of the cell culture and treatment are as described in Example 2. The cells were grouped into a control group (without treatment) and experiment groups treated with 5% of leaf juice, 50 nM paciltaxel, and combining 5% of leaf juice and 50 nM paciltaxel. Each group was repeated six times.

Huh7 = Huh7 hepatocellular carcinoma cell count after treatment; type: cell-based; conditions: Homo sapiens, Huh-7, 72 h; Huh7, day 3, 50 nM paciltaxel; read-out: inhibiting rate (cell growth)
From the text: Cell lines: The following nine human tumor cell lines of different histologic origins were obtained from commercial cell culture collections unless indicated otherwise: HepG2 (haptocellular carcinoma, liver; provided by Dr. C H Huang, National Health Research Institute, Taipei, Taiwan), Hep3B (haptocellular carcinoma, liver; provided by Dr. C H Huang, National Health Research Institute, Taipei, Taiwan), U937 (myeloid leukemia), K562 (chronic myeloid leukemia, bone marrow), Calu-1 (epidermoid carcinoma, lung; provided by Dr. Y C Kuo, National Institute of Traditional Chinese Medicine, Taipei, Taiwan), TL (trophoblast-like cell line, placenta; provided by Dr. C K Ho, Veteran General Hospital, Taipei, Taiwan), Jurket (human lymphoblastoid T cell line), Bowes (human melanoma cell), and Huh7 (hepatocellular carcinoma/ectoderm).
Cultures were maintained at 37° C. in a humidified atmosphere containing 5% CO2. All cell reagents were obtained from Gibco-Invitrogen Co., Ltd (Grand Island, N.Y. U.S.A.) and HyClone (Logan, Utah, U.S.A.).
as §1
Cell count: Total cell counts were made by adding 20 μL of the cell suspension to 20 μL of 0.4% trypan blue, and counted under a phase contrast microscope. […]

With CC(=O)O[C@H]1C(=O)[C@@]2(C)[C@H]([C@H](OC(=O)c3ccccc3)[C@]3(O)C[C@H](OC(=O)[C@H](O)[C@@H](NC(=O)c4ccccc4)c4ccccc4)C(C)=C1C3(C)C)[C@]1(OC(C)=O)CO[C@@H]1C[C@@H]2O [paciltaxel] the inhibition at 0.05 µM (HepG2) was 43.8% and the inhibition at 0.05 µM (Huh7) was 66.1%.
